Test results reported in the supplement of paper PMC10307832.

Assays:
Assay in all cases: relative viability (nuclei count vs DMSO), 5 days (fraction); higher = more cells survive
[1] = compound: Cn1nnc2c(C(N)=O)ncn2c1=O [Temozolomide] + CCNC(=O)c1noc(-c2cc(C(C)C)c(O)cc2O)c1-c1ccc(CN2CCOCC2)cc1 [Luminespib] (partner 0.01 µM)
Method in brief: (§1)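 A single step with final 0.05% Triton X-100, 1% formaldehyde and 1 ug/ml Hoechst fixed the cells and stained nuclei 5 days after treatment. Lung cancer cell lines in 1536-well plates had been treated by pin tool the day after seeding with one drug alone or a fixed anchor-drug dose plus five library-drug doses (not always all listed) in √10 steps, and nuclei were counted on 4× images. Relative viability is the ratio of nuclei in treated wells to nuclei in vehicle wells, taken as the median of duplicate plates.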

AZD5582 + Linsitinib = compound: C[C@@H](C(=O)N[C@@H](C1CCCCC1)C(=O)N2CCC[C@H]2C(=O)N[C@@H]3[C@@H](CC4=CC=CC=C34)OCC#CC#CCO[C@@H]5CC6=CC=CC=C6[C@@H]5NC(=O)[C@@H]7CCCN7C(=O)[C@H](C8CCCCC8)NC(=O)[C@H](C)NC)NC [AZD5582] + C[C@]1(O)C[C@@H](c2nc(-c3ccc4ccc(-c5ccccc5)nc4c3)c3c(N)nccn32)C1 [Linsitinib] (partner 1 µM)
Method in brief: as §1

AZD5582 + Phenformin = compound: C[C@@H](C(=O)N[C@@H](C1CCCCC1)C(=O)N2CCC[C@H]2C(=O)N[C@@H]3[C@@H](CC4=CC=CC=C34)OCC#CC#CCO[C@@H]5CC6=CC=CC=C6[C@@H]5NC(=O)[C@@H]7CCCN7C(=O)[C@H](C8CCCCC8)NC(=O)[C@H](C)NC)NC [AZD5582] + N=C(N)NC(=N)NCCc1ccccc1 [Phenformin] (partner 250 µM)
Method in brief: as §1

AZD5582 + OSI-027 = compound: C[C@@H](C(=O)N[C@@H](C1CCCCC1)C(=O)N2CCC[C@H]2C(=O)N[C@@H]3[C@@H](CC4=CC=CC=C34)OCC#CC#CCO[C@@H]5CC6=CC=CC=C6[C@@H]5NC(=O)[C@@H]7CCCN7C(=O)[C@H](C8CCCCC8)NC(=O)[C@H](C)NC)NC [AZD5582] + COc1cccc2cc(-c3nc([C@H]4CC[C@H](C(=O)O)CC4)n4ncnc(N)c34)[nH]c12 [OSI-027] (partner 0.5 µM)
Method in brief: as §1

| Cell Line | relative viability ([1]; first compound 0.2 µM) | relative viability ([1]; first compound 0.6325 µM) | relative viability ([1]; first compound 2 µM) | relative viability ([1]; first compound 6.325 µM) | relative viability ([1]; first compound 20 µM) | relative viability (AZD5582 + Linsitinib; first compound 0.001581 µM) | relative viability (AZD5582 + Linsitinib; first compound 0.005 µM) | relative viability (AZD5582 + Linsitinib; first compound 0.01581 µM) | relative viability (AZD5582 + Linsitinib; first compound 0.05 µM) | relative viability (AZD5582 + Phenformin; first compound 0.001581 µM) | relative viability (AZD5582 + Phenformin; first compound 0.005 µM) | relative viability (AZD5582 + Phenformin; first compound 0.01581 µM) | relative viability (AZD5582 + Phenformin; first compound 0.05 µM) | relative viability (AZD5582 + OSI-027; first compound 0.001581 µM) | relative viability (AZD5582 + OSI-027; first compound 0.005 µM) | relative viability (AZD5582 + OSI-027; first compound 0.01581 µM) | relative viability (AZD5582 + OSI-027; first compound 0.05 µM) |
| --- | --- | --- | --- | --- | --- | --- | --- | --- | --- | --- | --- | --- | --- | --- | --- | --- | --- |
| NCI-H23 | 0.223 | 0.208 | 0.229 | 0.21 | 0.237 | 0.621 | 0.421 | 0.529 | 0.418 | 0.66 | 0.611 | 0.518 | 0.425 | 0.403 | 0.45 | 0.245 | 0.21 |
| NCI-H322M | – | 0.935 | 0.968 | 0.786 | 0.712 | 0.871 | 1.13 | 0.887 | 1.02 | 0.776 | 0.996 | – | 0.872 | 0.508 | 0.713 | – | 0.562 |
| NCI-H358 | – | 0.271 | 0.485 | 0.347 | 0.404 | 0.817 | 0.998 | 0.899 | 0.847 | 0.366 | 0.374 | 0.399 | 0.313 | 0.677 | 0.962 | 0.821 | 0.777 |
| NCI-H441 | 0.333 | 0.515 | 0.331 | 0.306 | 0.368 | 0.453 | 0.53 | 0.454 | 0.389 | 0.621 | 0.799 | – | 0.674 | 0.536 | 0.582 | – | 0.651 |
| NCI-H460 | 0.0394 | 0.0362 | 0.0277 | 0.0344 | 0.0293 | 0.722 | 0.895 | 0.88 | 1.04 | 0.485 | 0.524 | 0.487 | 0.611 | 0.614 | 0.774 | 0.642 | 0.779 |
| NCI-H520 | 0.216 | 0.216 | 0.234 | 0.222 | 0.21 | 0.808 | 0.948 | 0.967 | 0.923 | 0.451 | 0.539 | 0.528 | 0.53 | 0.261 | 0.21 | 0.224 | 0.269 |
| NCI-H596 | 1.15 | 1.15 | 0.948 | 0.84 | 1.18 | 1.28 | 0.503 | 1.08 | 0.246 | – | – | 0.764 | 0.217 | – | – | 0.614 | 0.334 |
| NCI-H647 | 0.17 | 0.174 | 0.197 | 0.114 | 0.0944 | 1.1 | 1.01 | 1.25 | 0.934 | 0.47 | 0.504 | 0.456 | 0.459 | 0.599 | 0.704 | 0.463 | 0.75 |
| NCI-H650 | 0.607 | 0.898 | 0.816 | 0.739 | 0.846 | 0.649 | 0.758 | 0.431 | 0.564 | 0.417 | 0.401 | 0.342 | 0.385 | 0.431 | 0.509 | 0.364 | 0.32 |
| NCI-H661 | 0.977 | 0.931 | 0.934 | 0.879 | 0.843 | 0.469 | 0.552 | 0.58 | 0.682 | 0.268 | 0.271 | 0.269 | 0.267 | 0.6 | 0.725 | 0.722 | 0.676 |
| NCI-H727 | 0.239 | 0.397 | 0.299 | 0.37 | 0.325 | 0.309 | 0.253 | 0.465 | 0.258 | 0.518 | 1.28 | 0.632 | 0.673 | 0.51 | 0.473 | 0.508 | 0.529 |
| NCI-H838 | 0.357 | 0.346 | 0.35 | 0.301 | 0.393 | 0.973 | 0.968 | 0.842 | 1 | 0.551 | 0.703 | – | 0.594 | 0.339 | 0.423 | – | 0.449 |
| NCI-H1355 | 0.814 | 0.726 | 0.764 | 0.684 | 0.641 | 0.774 | 0.829 | 0.788 | 0.96 | 0.416 | 0.426 | 0.381 | 0.387 | 0.355 | 0.468 | 0.288 | 0.322 |
| NCI-H1395 | 0.51 | 0.67 | 0.703 | 0.65 | 0.6 | 1.05 | 1.03 | – | 1.11 | 0.5 | 0.476 | 0.412 | 0.45 | 0.7 | 0.734 | 0.583 | 0.767 |
| NCI-H1437 | 1.1 | 1.09 | 1.12 | 1.12 | 1.11 | 0.862 | 0.95 | 0.976 | 1.01 | 0.251 | 0.279 | 0.254 | 0.365 | 0.787 | 0.893 | 0.77 | 0.94 |
| NCI-H1563 | 0.472 | 0.499 | 0.525 | 0.533 | 0.487 | 1.23 | 1.18 | 1.24 | 1.15 | 0.641 | 0.665 | 0.574 | 0.627 | 0.688 | 0.709 | 0.731 | 0.679 |
